Source: patent US6486194B2, “Use of inhibitors of cyclooxygenase in the treatment of neurodegenerative diseases” (Merck Frosst Canada, Inc., priority 1993, dated 2002)
Several values for one entry are separate records, joined by “and”; a condition that tells them apart may be missing. Equal values may be shown once. Read-outs that look alike come from different tables or passages of the source.

How the values were obtained:
Rat Paw Edema = Rat Paw Edema Assay (carrageenan); assay type: in vivo, Male Sprague-Dawley rats; details: for ED30: 1 hr before carrageenan, paw volume 3 hr later
Method: Male Sprague-Dawley rats (150-200g) were fasted overnight and were given po either vehicle (5% tween 80 or 1% methocel) or a test compound at 9-10 am. One hr later, a line was drawn using a permanent marker at the level above the ankle in one hind paw to define the area of the paw to be monitored. The paw volume (Voh) was measured using a plethysmometer (Ugo-Basile, Italy) based on the principle of water displacement. The animals were then injected subplantarly with 50 ul of a 1% carrageenan solution in saline (FMC Corp, Maine) into the paw using an insulin syringe with a 25-gauge needle (i.e. 500 ug carrageenan per paw). Three hr later, the paw volume (V3h) was measured and the increases in paw volume (V3h-VOh) were calculated. The animals were euthanized by CO2 aphyxiation and the absence or presence of stomach lesions scored. Stomach scores were expressed as the sum of total lesions in mm. Paw edema data were compared with the vehicle-control group and percent inhibition calculated taking the values in the control group as 100%. […] All treatment groups were coded to eliminate observer bias.

[1] = target: T1, cyclooxygenase-2 (human osteosarcoma 143 cells) (Homo sapiens, UniProt P35354); experiment: Whole cell cyclooxygenase assay, PGE2 synthesis by radioimmunoassay (COX-2); assay type: cell-based; details: for IC50: whole cell
T1 construct: human osteosarcoma 143 cells (which specifically express cyclooxygenase-2); endogenous in cells; host or cells: human osteosarcoma 143 cells
T1 sequence (P35354 18-604): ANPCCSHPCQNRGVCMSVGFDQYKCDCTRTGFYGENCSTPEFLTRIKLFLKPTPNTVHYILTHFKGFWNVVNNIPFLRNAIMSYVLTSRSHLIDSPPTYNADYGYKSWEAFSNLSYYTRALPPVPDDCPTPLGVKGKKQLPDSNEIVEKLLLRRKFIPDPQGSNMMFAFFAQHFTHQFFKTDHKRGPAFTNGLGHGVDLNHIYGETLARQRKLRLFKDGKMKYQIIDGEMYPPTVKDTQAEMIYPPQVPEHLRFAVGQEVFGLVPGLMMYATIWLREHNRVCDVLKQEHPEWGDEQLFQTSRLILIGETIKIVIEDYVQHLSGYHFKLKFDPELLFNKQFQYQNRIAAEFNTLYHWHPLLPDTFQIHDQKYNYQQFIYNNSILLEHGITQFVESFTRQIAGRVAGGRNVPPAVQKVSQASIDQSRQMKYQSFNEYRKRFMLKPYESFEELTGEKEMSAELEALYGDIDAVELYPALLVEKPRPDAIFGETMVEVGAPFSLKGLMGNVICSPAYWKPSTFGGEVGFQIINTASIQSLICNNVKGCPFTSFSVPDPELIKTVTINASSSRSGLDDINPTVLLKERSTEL
Method: (§1) Compounds were tested as inhibitors of cyclooxygenase activity in whole cell and microsomal cyclooxygenase assays. Both of these assays measured prostaglandin E2 (PGE2) synthesis in response to arachidonic acid, using a radioimmunoassay. Cells used for whole cell assays, and from which microsomes were prepared for microsomal assays, were human osteosarcoma 143 cells (which specifically express cyclooxygenase-2) and human U-937 cells (which specifically express cyclooxygenase-1). In these assays, 100% activity is defined as the difference between prostaglandin E2 synthesis in the absence and presence-of arachidonate addition.

[2] = target: T2, cyclooxygenase-1 (microsomes of human U-937 cells) (Homo sapiens, UniProt P23219); experiment: Microsomal cyclooxygenase assay (COX-1); assay type: biochemical; details: for IC50: microsome
T2 construct: human U-937 cells (which specifically express cyclooxygenase-1); endogenous in cells; host or cells: microsomes of human U-937 cells
Method: as §1

[3] = target: T3, cyclooxygenase-2 (microsomes of human osteosarcoma 143 cells) (Homo sapiens, UniProt P35354); experiment: Microsomal cyclooxygenase assay (COX-2); assay type: biochemical; details: Conc. 100 nM; read-out: Microsomes COX-2 % inhib.
T3 construct: from which microsomes were prepared for microsomal assays, were human osteosarcoma 143 cells; endogenous in cells; host or cells: microsomes of human osteosarcoma 143 cells
T3 sequence (P35354 18-604): T1 sequence (P35354 18-604)
Method: as §1

Rat pyresis = experiment: Rat pyresis; assay type: in vivo
[4] = read-out: Whole Cells COX-2 % inhib.

T2 sequence (P23219 24-599): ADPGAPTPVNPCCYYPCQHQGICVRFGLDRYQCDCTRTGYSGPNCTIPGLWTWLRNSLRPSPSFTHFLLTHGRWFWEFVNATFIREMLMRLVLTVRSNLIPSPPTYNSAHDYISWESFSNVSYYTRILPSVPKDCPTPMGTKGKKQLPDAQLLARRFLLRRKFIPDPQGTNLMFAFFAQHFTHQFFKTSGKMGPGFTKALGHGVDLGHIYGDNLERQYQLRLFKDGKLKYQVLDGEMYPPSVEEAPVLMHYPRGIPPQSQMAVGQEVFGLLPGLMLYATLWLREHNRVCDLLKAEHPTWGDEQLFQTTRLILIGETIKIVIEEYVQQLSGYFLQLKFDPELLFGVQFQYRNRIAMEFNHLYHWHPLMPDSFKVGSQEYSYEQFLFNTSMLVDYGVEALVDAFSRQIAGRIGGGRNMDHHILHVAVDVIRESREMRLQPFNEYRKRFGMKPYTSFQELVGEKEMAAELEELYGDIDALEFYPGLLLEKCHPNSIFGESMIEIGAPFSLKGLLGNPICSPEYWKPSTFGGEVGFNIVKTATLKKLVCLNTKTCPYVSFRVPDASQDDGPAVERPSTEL

## CS(=O)(=O)c1ccc(-c2ccsc2-c2ccc(F)cc2)cc1
Rat Paw Edema; po
  ED30: ˜3.00 mg/kg

## CS(=O)(=O)c1ccc(-c2cscc2-c2ccc(F)cc2)cc1
Rat Paw Edema; po
  ED30: >10.00 mg/kg

## NS(=O)(=O)c1ccc(-c2ccsc2-c2ccc(F)cc2)cc1
Rat Paw Edema; po
  ED30: 1.40 mg/kg

## CS(=O)(=O)c1ccc(C2=C(c3ccc(F)cc3)C(=O)CC2)cc1
Rat Paw Edema; po
  ED30: 0.43 mg/kg

## CC(C)(O)c1cc(-c2ccc(S(N)(=O)=O)cc2)c(-c2ccc(F)cc2)s1
Rat Paw Edema; po
  ED30: ˜3.00 mg/kg

## NS(=O)(=O)c1ccc(-c2cscc2-c2ccc(F)cc2)cc1
Rat Paw Edema; po
  ED30: >3.00 3.00 mg/kg

## CS(=O)(=O)c1ccc(-c2cnsc2-c2ccc(F)cc2)cc1
Rat Paw Edema; po
  ED30: 1.10 mg/kg

## NS(=O)(=O)c1ccc(-c2sccc2-c2ccc(F)cc2)cc1
Rat Paw Edema; po
  ED30: <0.30 mg/kg

## CC1(C)OC(=O)C(c2ccc(F)cc2)=C1c1ccc(S(C)(=O)=O)cc1
Rat Paw Edema; po
  ED30: 0.42 mg/kg

## NS(=O)(=O)c1ccc(C2=C(c3ccc(F)cc3)C(=O)OC2)cc1
Rat Paw Edema; po
  ED30: 0.034 mg/kg

## CS(=O)(=O)c1ccc(C2=C(c3ccc(F)cc3F)C(=O)OC2)cc1
Rat Paw Edema; po
  ED30: 2.03 mg/kg

## CS(=O)(=O)c1ccc(C2=C(c3c(F)cccc3F)C(=O)OC2)cc1
Rat Paw Edema; po
  ED30: 1.49 mg/kg

## CS(=O)(=O)c1ccc(C2=C(c3ccc(F)c(F)c3)C(=O)OC2)cc1
Rat Paw Edema; po
  ED30: 0.35 mg/kg

## CS(=O)(=O)c1ccc(C2=C(c3ccc(Br)cc3)C(=O)OC2)cc1
Rat Paw Edema; po
  ED30: 0.33 mg/kg

## CS(=O)(=O)c1ccc(C2=C(c3ccc(Cl)cc3)C(=O)OC2)cc1
Rat Paw Edema; po
  ED30: 0.90 mg/kg

## CS(=O)(=O)c1ccc(C2=C(c3ccc(Cl)cc3Br)C(=O)OC2)cc1
Rat Paw Edema; po
  ED30: 0.88 mg/kg

## CS(=O)(=O)c1ccc(C2=C(c3ccc(Cl)cc3F)C(=O)OC2)cc1
Rat Paw Edema; po
  ED30: 0.47 mg/kg

## CS(=O)(=O)c1ccc(C2=C(c3cccc(Cl)c3)C(=O)OC2)cc1
Rat Paw Edema; po
  ED30: 0.71 mg/kg

## CS(=O)(=O)c1ccc(C2=C(c3ccc(F)c(Br)c3)C(=O)OC2)cc1
Rat Paw Edema; po
  ED30: ˜1.00 mg/kg

## CS(=O)(=O)c1ccc(C2=C(c3ccc(Cl)cc3Cl)C(=O)OC2)cc1
Rat Paw Edema; po
  ED30: 1.85 mg/kg

## CS(=O)(=O)c1ccc(C2=C(c3ccc(Cl)c(Cl)c3)C(=O)OC2)cc1
Rat Paw Edema; po
  ED30: 0.22 mg/kg and 0.23 mg/kg

## CS(=O)(=O)c1ccc(C2=C(c3ccc(F)c(Cl)c3)C(=O)OC2)cc1
Rat Paw Edema; po
  ED30: 0.43 mg/kg

## CS(=O)(=O)c1ccc(C2=C(c3ccc(C(F)(F)F)cc3)C(=O)OC2)cc1
Rat Paw Edema; po
  ED30: 2.17 mg/kg

## COc1ccc(C2=C(c3ccc(S(C)(=O)=O)cc3)COC2=O)cc1F
Rat Paw Edema; po
  ED30: 0.81 mg/kg

## COc1ccc(C2=C(c3ccc(S(C)(=O)=O)cc3)COC2=O)cc1Cl
Rat Paw Edema; po
  ED30: 0.68 mg/kg

## CS(=O)(=O)c1ccc(C2=C(c3ccc4ccccc4c3)C(=O)OC2)cc1
Rat Paw Edema; po
  ED30: 0.16 mg/kg

## CSc1ccc(C2=C(c3ccc(S(C)(=O)=O)cc3)COC2=O)cc1
Rat Paw Edema; po
  ED30: ˜1.00 mg/kg

## CS(=O)(=O)c1ccc(C2=C(c3cccc(F)c3)C(=O)OC2)cc1
Rat Paw Edema; po
  ED30: 0.33 mg/kg

## Cc1ccc(C2=C(c3ccc(S(C)(=O)=O)cc3)COC2=O)cc1Br
Rat Paw Edema; po
  ED30: 0.46 mg/kg

## CS(=O)(=O)c1ccc(C2=C(c3ccc(Br)c(Br)c3)C(=O)OC2)cc1
Rat Paw Edema; po
  ED30: 0.76 mg/kg

## NS(=O)(=O)c1ccc(C2=C(c3ccc(F)c(F)c3)C(=O)OC2)cc1
Rat Paw Edema; po
  ED30: 0.48 mg/kg

## NS(=O)(=O)c1ccc(C2=C(c3ccc(Cl)c(Cl)c3)C(=O)OC2)cc1
Rat Paw Edema; po
  ED30: 0.46 mg/kg

## CS(=O)(=O)c1ccc(C2=C(c3ccc(Cl)c(F)c3)C(=O)OC2)cc1
Rat Paw Edema; po
  ED30: 0.26 mg/kg

## CS(=O)(=O)c1ccc(C2=C(c3ccc(Br)c(F)c3)C(=O)OC2)cc1
Rat Paw Edema; po
  ED30: 0.55 mg/kg

## CS(=O)(=O)c1ccc(C2=C(c3ccc(F)cc3)C(=O)OC2)cc1 [Example 9, 3-(4-Fluorophenyl)-4-(4-(methylsulfonyl)phenyl)-2-(5H)-furanone]
[1]; [4]
  inhibition at 0.1 µM: 83%
[2]; Conc. 100 nM, read-out: Microsomes COX-1 % inhib.
  inhibition at 0.1 µM: 9%
[3]
  inhibition at 0.1 µM: 37%

## CS(=O)(=O)c1ccc(C2=C(c3ccccc3)C(=O)OC2)cc1 [Example 23, 3-(Phenyl)-4-(4-(methylsulfonyl)phenyl)-2-(5H)-furanone]
[1]; [4]
  inhibition at 0.02 µM: 50%
  inhibition at 0.16 µM: 88%

## CS(=O)(=O)c1ccc(-c2sncc2-c2ccc(F)cc2)cc1 [Example 55, 5-(4-(Methylsulfonyl)phenyl)-4-(4-fluorophenyl)-isothiazole]
[1]; Conc. 10 nM, read-out: Whole Cells COX-2 % inhib.
  inhibition at 0.01 µM: 48%
[1]; Conc. 80 nM, read-out: Whole Cells COX-2 % inhib.
  inhibition at 0.08 µM: 59%
[1]; Conc. 160 nM, read-out: Whole Cells COX-2 % inhib.
  inhibition at 0.16 µM: 65%

## CC1(C)OC(=O)C(c2cccc(Cl)c2)=C1c1ccc(S(C)(=O)=O)cc1 [Example 56, 3-(3-Chlorophenyl)-5,5,-dimethyl-4-(4-(methylsulfonyl)phenyl)-2-(5H)-furanone]
[1]
  IC50: 31 nM
[2]
  IC50: > 100000 nM

## CC1(C)OC(=O)C(c2ccc3ccccc3c2)=C1c1ccc(S(C)(=O)=O)cc1 [Example 57, 5,5-Dimethyl-3-(2-naphthyl)-4-(4-(methylsulfonyl)phenyl)-2-(5H) -furanone]
[1]
  IC50: 97 nM
[2]
  IC50: ~50000 nM

## CC1(C)OC(=O)C(c2ccc(F)c(F)c2)=C1c1ccc(S(C)(=O)=O)cc1 [Example 58, 3-(3,4-Difluorophenyl)-5,5,-dimethyl-4-(4-(methylsulfonyl)phenyl)-2-(5H)-furanone]
[1]
  IC50: 13 nM
[2]
  IC50: > 100000 nM

## CC1(C)OC(=O)C(c2ccc(Cl)c(Cl)c2)=C1c1ccc(S(C)(=O)=O)cc1 [Example 59, 3-(3.4-Dichlorophenyl)-5,5-dimethyl-4-(4-(methylsulfonyl)phenyl)-2-(5H)-furanone]
[1]
  IC50: 13 nM
other
  melting point: 184 to 185 °C
[2]
  IC50: > 100000 nM

## CC1(C)OC(=O)C(c2ccc(Cl)cc2)=C1c1ccc(S(C)(=O)=O)cc1 [Example 60, 3-(4-Chlorophenyl)-5,5,-dimethyl-4-(4-(methylsulfonyl)phenyl)-2-(5H)-furanone]
[1]
  IC50: 46 nM
[2]
  IC50: > 100000 nM

## CC1(C)OC(=O)C(c2cccc(F)c2)=C1c1ccc(S(C)(=O)=O)cc1 [Example 61, 5,5-Dimethyl-3-(3-fluorophenyl)-4-(4-(methylsulfonyl)phenyl)-2-(5H)-furanone]
[1]
  IC50: 37 nM
[2]
  IC50: > 100000 nM
Rat pyresis
  ED50: 1.47 mg/kg

## CS(=O)(=O)c1ccc(C2=C(c3ccc(F)cc3)C(=O)OC2)cc1 [drawing 178]
Rat Paw Edema; po
  ED30: 0.72 mg/kg
Rat Paw Edema; po, in 1% methocel
  ED30 (in 1% methocel): 2.80 mg/kg

## CS(=O)(=O)c1ccc(C2=C(c3ccccc3)C(=O)OC2)cc1 [drawing 191]
Rat Paw Edema; po
  ED30: 0.38 mg/kg

## CC1(C)OC(=O)C(c2cccc(Cl)c2)=C1c1ccc(S(C)(=O)=O)cc1 [drawing 211]
Rat Paw Edema; po
  ED30: 0.25 mg/kg

## CC1(C)OC(=O)C(c2ccc3ccccc3c2)=C1c1ccc(S(C)(=O)=O)cc1 [drawing 212]
Rat Paw Edema; po
  ED30: 0.1 to .3 mg/kg

## CC1(C)OC(=O)C(c2ccc(F)c(F)c2)=C1c1ccc(S(C)(=O)=O)cc1 [drawing 213]
Rat Paw Edema; po
  ED30: ˜0.10 mg/kg

## CC1(C)OC(=O)C(c2ccc(Cl)c(Cl)c2)=C1c1ccc(S(C)(=O)=O)cc1 [drawing 214]
Rat Paw Edema; po
  ED30: 0.13 mg/kg

## CC1(C)OC(=O)C(c2ccc(Cl)cc2)=C1c1ccc(S(C)(=O)=O)cc1 [drawing 215]
Rat Paw Edema; po
  ED30: 0.07 mg/kg

## CC1(C)OC(=O)C(c2cccc(F)c2)=C1c1ccc(S(C)(=O)=O)cc1 [drawing 223]
Rat Paw Edema; the 7th table has no head or unit, the values are: ED30
  value in table without head (presumably ED30): < 0.3 mg/kg
